Test results from US9492471B2, “Methods of treating a disease or disorder associated with Bruton'S Tyrosine Kinase” (Celgene Avilomics Research, Inc., priority 2013, dated 2016).
Read-outs that look alike come from different tables or passages of the source.

How the values were obtained:
Test in all cases: HotSpot kinase profiling
Type in all cases: biochemical
[1] = molecular target: T1, Aurora A (Homo sapiens, UniProt O14965)
T1 construct: purchased Reaction Biology Corp
T1 sequence (O14965 1-403): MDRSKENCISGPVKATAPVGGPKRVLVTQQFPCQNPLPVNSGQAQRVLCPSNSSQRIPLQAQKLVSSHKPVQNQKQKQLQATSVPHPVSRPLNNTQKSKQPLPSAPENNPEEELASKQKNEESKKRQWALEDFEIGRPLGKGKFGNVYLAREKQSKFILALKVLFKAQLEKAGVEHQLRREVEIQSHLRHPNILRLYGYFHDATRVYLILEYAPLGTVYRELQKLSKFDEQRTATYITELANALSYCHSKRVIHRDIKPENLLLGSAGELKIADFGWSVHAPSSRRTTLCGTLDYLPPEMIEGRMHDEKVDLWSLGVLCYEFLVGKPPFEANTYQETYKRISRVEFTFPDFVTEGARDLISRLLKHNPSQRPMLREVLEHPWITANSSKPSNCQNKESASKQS
In short: (§1)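 Radio-isotope P81 filtration format. Substrate + required cofactors in reaction buffer, kinase added, 2 h RT. Stop, wash with 0.1% phosphoric acid, detect. % inhibition vs DMSO; mean of duplicates where repeated.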

[2] = molecular target: T2, PKCzeta (Homo sapiens, UniProt Q05513)
T2 construct: purchased Reaction Biology Corp
T2 sequence (Q05513 1-592): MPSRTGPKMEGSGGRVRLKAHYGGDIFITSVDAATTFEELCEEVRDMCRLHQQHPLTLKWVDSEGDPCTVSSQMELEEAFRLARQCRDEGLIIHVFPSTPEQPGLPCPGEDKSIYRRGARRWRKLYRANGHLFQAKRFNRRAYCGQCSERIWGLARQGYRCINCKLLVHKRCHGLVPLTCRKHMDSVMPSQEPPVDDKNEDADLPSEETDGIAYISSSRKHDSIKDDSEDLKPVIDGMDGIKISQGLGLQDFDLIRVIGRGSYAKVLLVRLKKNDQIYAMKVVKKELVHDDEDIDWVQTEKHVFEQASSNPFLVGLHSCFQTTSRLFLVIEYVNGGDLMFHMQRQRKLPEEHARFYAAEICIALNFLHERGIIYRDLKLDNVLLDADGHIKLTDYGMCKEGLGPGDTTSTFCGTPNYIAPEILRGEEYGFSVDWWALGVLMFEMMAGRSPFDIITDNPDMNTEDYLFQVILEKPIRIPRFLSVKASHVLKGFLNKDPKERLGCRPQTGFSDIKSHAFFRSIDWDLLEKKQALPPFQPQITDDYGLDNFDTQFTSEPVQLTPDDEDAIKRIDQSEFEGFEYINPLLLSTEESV
In short: as §1

[3] = molecular target: T3, IKKa/CHUK (Homo sapiens, UniProt O15111)
T3 construct: purchased Reaction Biology Corp
T3 sequence (O15111 1-745): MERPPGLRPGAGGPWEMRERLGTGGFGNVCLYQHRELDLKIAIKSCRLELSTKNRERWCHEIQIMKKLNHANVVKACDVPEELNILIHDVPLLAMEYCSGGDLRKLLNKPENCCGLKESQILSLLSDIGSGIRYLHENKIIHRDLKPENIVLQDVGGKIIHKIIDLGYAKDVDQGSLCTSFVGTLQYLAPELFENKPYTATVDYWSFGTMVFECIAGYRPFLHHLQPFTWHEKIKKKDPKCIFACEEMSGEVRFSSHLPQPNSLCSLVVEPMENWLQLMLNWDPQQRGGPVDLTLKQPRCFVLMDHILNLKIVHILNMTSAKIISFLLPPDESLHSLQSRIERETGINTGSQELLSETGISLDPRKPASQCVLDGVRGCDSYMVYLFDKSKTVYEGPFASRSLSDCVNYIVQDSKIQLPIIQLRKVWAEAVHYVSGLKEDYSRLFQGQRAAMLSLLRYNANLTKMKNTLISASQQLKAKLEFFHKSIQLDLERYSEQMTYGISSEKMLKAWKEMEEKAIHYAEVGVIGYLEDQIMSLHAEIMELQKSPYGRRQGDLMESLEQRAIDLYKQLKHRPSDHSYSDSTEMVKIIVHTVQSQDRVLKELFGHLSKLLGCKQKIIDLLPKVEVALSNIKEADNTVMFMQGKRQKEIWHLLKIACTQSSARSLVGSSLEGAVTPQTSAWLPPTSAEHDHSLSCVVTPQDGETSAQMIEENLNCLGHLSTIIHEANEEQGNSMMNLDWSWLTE
In short: as §1

[4] = read-out: % Enzyme Activity (relative to DMSO controls) Run 1
[5] = read-out: % Enzyme Activity (relative to DMSO controls) Run 2

C=CC(=O)Nc1cccc(Nc2nc(Nc3ccc(OCCOC)c(F)c3)ncc2F)c1 [Compound 2]
inhibition at 3 µM [1]: 88.3% | remaining activity at 3 µM [1, 4]: 12.3% | remaining activity at 3 µM [1, 5]: 11% | inhibition at 3 µM [2]: 2.52% | remaining activity at 3 µM [2, 4]: 99.8% | remaining activity at 3 µM [2, 5]: 95.2% | inhibition at 3 µM [3]: 8.54% | remaining activity at 3 µM [3, 4]: 91.4% | remaining activity at 3 µM [3, 5]: 91.5%
